Counter-ions that a name gives are not always drawn.
Tests used:
[1] = in vivo; details: male, beagle, dog, plasma, po, 500 mg
[2] = Beagle dog, oral, 500 mg, 1 dose
[3] = cited from earlier work

AUC(0-inf) [1] [ng·h/mL] | AUC(0-t) [1] [ng·h/mL] | Cmax [1] [ng/mL] | MRT [1] [h] | Tmax [1] [h] | Ke (terminal elimination rate per hour) [2] [h⁻¹] | SMILES | Time to complete absorption after administration ([3]; estimated) [h] | Absorbed in the remaining part of (lower) intestine tract ([3]; in vivo) | Recovered in faeces ([3]; in vivo)
81200 | 77900 | 12400 | 8.02 | 1.3 | 0.157 | CN(C)C(=N)N=C(N)N [Metformin (Matrix-free), metformin hydrochloride] |  |  | 
 |  |  |  |  |  | CN(C)C(=N)N=C(N)N [Metformin] | ≤ 6 | about 40% | up to 30%

From patent publication US20240293327A1, “MONOLITHIC TABLETS BASED ON CARBOXYL POLYMERIC COMPLEXES FOR CONTROLLED DRUG RELEASE” (MATRIPHARM INTERNATIONAL INC., priority 2014, published 2024)
